Assay results from ChEMBL document CHEMBL4680228 (Eur J Med Chem, 2020).
Calls of active or inactive are those of the source. No cut-off for these calls is given here.

How the values were obtained:
SR = assay: Antiproliferative activity against human SR cells assessed as reduction in cell growth; assay type: functional, cell-based
[1] = target: NPM/ALK (Nucleophosmin/ALK tyrosine kinase receptor) (Homo sapiens) (UniProt Q9UM73+P06748); assay: Induction of NPM-ALK fusion protein degradation in human SR cells; assay type: cell-based
[2] = target: von Hippel-Lindau disease tumor suppressor/ALK tyrosine kinase receptor/Nucleophosmin (Homo sapiens, UniProt Q9UM73+P06748+P40337); assay: Protac activity at VHL/NPM-ALK fusion protein in human SR cells assessed as degradation of ALK; assay type: cell-based
cells = settings: Homo sapiens, NCI-H1688
Description: Antiproliferative activity against human NCI-H1688 cells assessed as inhibition of cell proliferation

NCI-H69 = assay: Antiproliferative activity against human NCI-H69 cells assessed as inhibition of cell proliferation; assay type: functional, cell-based
NCI-H2228 = assay: Antiproliferative activity against human NCI-H2228 cells expressing EML4-ALK assessed as reduction in cell viability incubated for 72 hrs by CCK8 assay; assay type: functional, cell-based; settings: NCI-H2228, 72 h

Chain of von Hippel-Lindau disease tumor suppressor/ALK tyrosine kinase receptor/Nucleophosmin (Q9UM73 whole entry, the tested form may be a part): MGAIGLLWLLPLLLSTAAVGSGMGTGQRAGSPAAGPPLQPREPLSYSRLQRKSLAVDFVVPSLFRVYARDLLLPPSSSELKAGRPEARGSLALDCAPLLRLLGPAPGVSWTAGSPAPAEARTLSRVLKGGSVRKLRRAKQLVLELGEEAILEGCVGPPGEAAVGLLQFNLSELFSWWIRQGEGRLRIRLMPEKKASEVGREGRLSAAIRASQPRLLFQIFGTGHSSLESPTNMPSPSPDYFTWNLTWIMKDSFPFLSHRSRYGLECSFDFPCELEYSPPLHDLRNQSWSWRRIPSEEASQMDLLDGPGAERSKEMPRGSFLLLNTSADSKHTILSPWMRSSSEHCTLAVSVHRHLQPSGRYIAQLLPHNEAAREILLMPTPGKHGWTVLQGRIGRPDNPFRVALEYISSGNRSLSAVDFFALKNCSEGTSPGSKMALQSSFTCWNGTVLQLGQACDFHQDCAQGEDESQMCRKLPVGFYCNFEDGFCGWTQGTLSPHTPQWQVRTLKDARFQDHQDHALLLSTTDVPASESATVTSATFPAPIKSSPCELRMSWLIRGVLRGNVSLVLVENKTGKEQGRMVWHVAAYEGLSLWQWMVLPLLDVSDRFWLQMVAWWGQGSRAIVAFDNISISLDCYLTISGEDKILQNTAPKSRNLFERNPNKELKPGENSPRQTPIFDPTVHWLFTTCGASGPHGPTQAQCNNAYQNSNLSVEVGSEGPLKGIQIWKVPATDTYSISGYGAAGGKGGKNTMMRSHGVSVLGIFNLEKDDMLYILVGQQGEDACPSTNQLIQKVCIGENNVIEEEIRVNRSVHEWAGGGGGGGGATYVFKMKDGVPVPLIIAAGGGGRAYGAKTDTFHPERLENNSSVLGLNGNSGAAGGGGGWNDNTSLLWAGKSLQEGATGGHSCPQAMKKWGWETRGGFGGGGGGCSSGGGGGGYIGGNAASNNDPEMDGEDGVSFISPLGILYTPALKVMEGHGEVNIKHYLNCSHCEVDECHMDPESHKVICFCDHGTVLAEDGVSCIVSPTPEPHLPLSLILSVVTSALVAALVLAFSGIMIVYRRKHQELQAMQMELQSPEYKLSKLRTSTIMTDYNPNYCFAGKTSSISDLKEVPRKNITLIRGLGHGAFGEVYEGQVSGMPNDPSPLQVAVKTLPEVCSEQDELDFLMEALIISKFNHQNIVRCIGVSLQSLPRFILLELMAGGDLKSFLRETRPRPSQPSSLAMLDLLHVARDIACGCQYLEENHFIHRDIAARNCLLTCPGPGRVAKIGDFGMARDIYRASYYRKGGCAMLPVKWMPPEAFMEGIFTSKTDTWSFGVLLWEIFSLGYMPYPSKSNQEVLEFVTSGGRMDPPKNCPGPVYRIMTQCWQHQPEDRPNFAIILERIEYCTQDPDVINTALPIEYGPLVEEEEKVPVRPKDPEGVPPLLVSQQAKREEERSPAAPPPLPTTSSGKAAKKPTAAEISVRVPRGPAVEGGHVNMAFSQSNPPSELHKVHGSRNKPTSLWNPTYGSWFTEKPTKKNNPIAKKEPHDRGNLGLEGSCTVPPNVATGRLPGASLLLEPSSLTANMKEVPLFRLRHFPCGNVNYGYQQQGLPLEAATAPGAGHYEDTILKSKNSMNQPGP
Chain of von Hippel-Lindau disease tumor suppressor/ALK tyrosine kinase receptor/Nucleophosmin (P06748 whole entry, the tested form may be a part): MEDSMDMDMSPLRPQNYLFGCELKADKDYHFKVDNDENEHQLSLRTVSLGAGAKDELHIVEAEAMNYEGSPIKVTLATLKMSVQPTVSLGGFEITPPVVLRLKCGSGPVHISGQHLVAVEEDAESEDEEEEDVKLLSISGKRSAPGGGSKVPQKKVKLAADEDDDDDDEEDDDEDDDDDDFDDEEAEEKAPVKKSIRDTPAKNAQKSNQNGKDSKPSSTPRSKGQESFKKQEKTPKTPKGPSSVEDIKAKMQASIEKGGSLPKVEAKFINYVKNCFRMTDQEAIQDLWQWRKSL
Chain of von Hippel-Lindau disease tumor suppressor/ALK tyrosine kinase receptor/Nucleophosmin (P40337 whole entry, the tested form may be a part): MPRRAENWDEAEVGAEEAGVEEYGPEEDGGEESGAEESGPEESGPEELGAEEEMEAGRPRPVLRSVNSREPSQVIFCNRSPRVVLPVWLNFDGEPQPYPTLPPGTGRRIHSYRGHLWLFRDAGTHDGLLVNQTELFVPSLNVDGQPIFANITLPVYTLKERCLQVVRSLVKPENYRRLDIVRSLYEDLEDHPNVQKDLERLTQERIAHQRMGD
Chain of NPM/ALK (Nucleophosmin/ALK tyrosine kinase receptor) (Homo sapiens) (P06748 whole entry partner, the tested form may be a part): as the sequence (P06748 whole entry, the tested form may be a part) above
Chain of NPM/ALK (Nucleophosmin/ALK tyrosine kinase receptor) (Homo sapiens) (Q9UM73 19-1620 limits assumed): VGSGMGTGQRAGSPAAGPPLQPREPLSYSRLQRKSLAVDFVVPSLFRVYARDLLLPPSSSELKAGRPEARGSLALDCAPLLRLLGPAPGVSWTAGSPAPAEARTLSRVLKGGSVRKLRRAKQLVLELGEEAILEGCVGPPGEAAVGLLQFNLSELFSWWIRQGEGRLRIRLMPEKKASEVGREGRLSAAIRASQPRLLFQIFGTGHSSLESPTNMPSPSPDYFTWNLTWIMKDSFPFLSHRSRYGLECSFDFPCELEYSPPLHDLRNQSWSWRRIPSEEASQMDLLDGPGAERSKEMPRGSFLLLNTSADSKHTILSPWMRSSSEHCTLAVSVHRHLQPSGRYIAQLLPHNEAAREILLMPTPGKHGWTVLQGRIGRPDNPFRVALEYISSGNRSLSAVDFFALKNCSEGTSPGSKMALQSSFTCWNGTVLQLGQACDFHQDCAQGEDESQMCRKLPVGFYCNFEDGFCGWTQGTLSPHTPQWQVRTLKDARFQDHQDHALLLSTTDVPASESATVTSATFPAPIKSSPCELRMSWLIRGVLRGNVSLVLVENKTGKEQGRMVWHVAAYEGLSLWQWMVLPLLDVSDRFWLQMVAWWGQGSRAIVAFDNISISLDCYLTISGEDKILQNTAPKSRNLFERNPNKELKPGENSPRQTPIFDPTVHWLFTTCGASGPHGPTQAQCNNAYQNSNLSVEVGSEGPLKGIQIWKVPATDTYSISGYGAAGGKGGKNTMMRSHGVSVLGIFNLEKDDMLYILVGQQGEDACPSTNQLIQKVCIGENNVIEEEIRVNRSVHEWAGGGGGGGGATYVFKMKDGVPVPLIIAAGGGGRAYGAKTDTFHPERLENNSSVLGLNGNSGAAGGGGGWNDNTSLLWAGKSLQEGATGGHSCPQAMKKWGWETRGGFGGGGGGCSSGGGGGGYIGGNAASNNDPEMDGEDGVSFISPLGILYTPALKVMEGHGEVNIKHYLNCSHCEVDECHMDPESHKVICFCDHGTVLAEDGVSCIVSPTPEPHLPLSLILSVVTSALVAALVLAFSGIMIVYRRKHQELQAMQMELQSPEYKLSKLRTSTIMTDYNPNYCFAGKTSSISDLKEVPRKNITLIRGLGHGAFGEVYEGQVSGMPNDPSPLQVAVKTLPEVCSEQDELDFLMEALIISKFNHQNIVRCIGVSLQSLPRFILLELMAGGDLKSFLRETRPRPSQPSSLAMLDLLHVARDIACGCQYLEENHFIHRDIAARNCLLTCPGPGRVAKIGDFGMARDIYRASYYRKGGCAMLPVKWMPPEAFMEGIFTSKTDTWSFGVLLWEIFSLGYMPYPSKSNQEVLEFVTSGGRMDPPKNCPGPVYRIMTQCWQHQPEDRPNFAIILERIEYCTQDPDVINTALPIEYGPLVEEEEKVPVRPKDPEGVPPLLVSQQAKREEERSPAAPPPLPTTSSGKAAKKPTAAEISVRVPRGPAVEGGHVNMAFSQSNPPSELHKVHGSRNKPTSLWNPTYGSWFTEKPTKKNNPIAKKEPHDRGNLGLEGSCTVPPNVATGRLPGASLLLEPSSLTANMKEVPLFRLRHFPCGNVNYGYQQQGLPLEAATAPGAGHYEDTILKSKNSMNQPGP

| Structure (SMILES) | Activity (SR) | further results |
| --- | --- | --- |
| COc1cc(N2CCC(N)CC2)ccc1Nc1ncc(Cl)c(Nc2ccccc2P(C)(C)=O)n1 |  | IC50 (SR): 1.7 nM; Activity [1]: inactive |
| COc1cc(N2CCC(NC(=O)CCOCCOCCOCCC(=O)N[C@H](C(=O)N3C[C@H](O)C[C@H]3C(=O)NCc3ccc(-c4scnc4C)cc3)C(C)(C)C)CC2)ccc1Nc1ncc(Cl)c(Nc2ccccc2P(C)(C)=O)n1 | inactive |  |
| COc1cc(N2CCC(NC(=O)CCOCCOCCC(=O)N[C@H](C(=O)N3C[C@H](O)C[C@H]3C(=O)NCc3ccc(-c4scnc4C)cc3)C(C)(C)C)CC2)ccc1Nc1ncc(Cl)c(Nc2ccccc2P(C)(C)=O)n1 | inactive |  |
| COc1cc(N2CCN(C(=O)CCCCCCCC(=O)N[C@H](C(=O)N3C[C@H](O)C[C@H]3C(=O)NCc3ccc(-c4scnc4C)cc3)C(C)(C)C)CC2)ccc1Nc1ncc(Cl)c(Nc2ccccc2P(C)(C)=O)n1 | Active | DC50 [2]: 15 nM |
| COc1cc(N2CCC(NC(=O)CCCCCC(=O)N[C@H](C(=O)N3C[C@H](O)C[C@H]3C(=O)NCc3ccc(-c4scnc4C)cc3)C(C)(C)C)CC2)ccc1Nc1ncc(Cl)c(Nc2ccccc2P(C)(C)=O)n1 | Active |  |
| Cc1ncsc1-c1ccc(CNC(=O)[C@@H]2C[C@@H](O)CN2C(=O)[C@@H](NC(=O)CCCCCCCCCC(=O)O)C(C)(C)C)cc1 |  | IC50 (cells): > 45000 nM; IC50 (NCI-H69): > 40000 nM |
| COc1cc(N2CCN(C(=O)CCOCCOCCOCCC(=O)N[C@H](C(=O)N3C[C@H](O)C[C@H]3C(=O)NCc3ccc(-c4scnc4C)cc3)C(C)(C)C)CC2)ccc1Nc1ncc(Cl)c(Nc2ccccc2P(C)(C)=O)n1 | inactive |  |
| COc1cc(N2CCC(NC(=O)CCCCCCCCC(=O)N[C@H](C(=O)N3C[C@H](O)C[C@H]3C(=O)NCc3ccc(-c4scnc4C)cc3)C(C)(C)C)CC2)ccc1Nc1ncc(Cl)c(Nc2ccccc2P(C)(C)=O)n1 | Active | DC50 [2]: 7.2 nM |
| COc1cc(N2CCC(NC(=O)CCCCCCC(=O)N[C@H](C(=O)N3C[C@H](O)C[C@H]3C(=O)NCc3ccc(-c4scnc4C)cc3)C(C)(C)C)CC2)ccc1Nc1ncc(Cl)c(Nc2ccccc2P(C)(C)=O)n1 | Active | DC50 [2]: 9.1 nM |
| COc1cc(N2CCNCC2)ccc1Nc1ncc(Cl)c(Nc2ccccc2P(C)(C)=O)n1 |  | IC50 (SR): 1.6 nM |
| COc1cc(N2CCC(NC(=O)CCOCCOCCOCCOCCOCCC(=O)N[C@H](C(=O)N3C[C@H](O)C[C@H]3C(=O)NCc3ccc(-c4scnc4C)cc3)C(C)(C)C)CC2)ccc1Nc1ncc(Cl)c(Nc2ccccc2P(C)(C)=O)n1 | inactive |  |
| COc1cc(N2CCC(N3CCNCC3)CC2)ccc1Nc1ncc(Cl)c(Nc2ccccc2P(C)(C)=O)n1 |  | IC50 (SR): 6.8 nM; Activity [1]: inactive |
| COc1cc(N2CCC(NC(=O)CCCCCCCC(=O)N[C@H](C(=O)N3C[C@H](O)C[C@H]3C(=O)NCc3ccc(-c4scnc4C)cc3)C(C)(C)C)CC2)ccc1Nc1ncc(Cl)c(Nc2ccccc2P(C)(C)=O)n1 | Active | DC50 [2]: 20.9 nM |
| COc1cc(N2CCC(NC(=O)CCCC(=O)N[C@H](C(=O)N3C[C@H](O)C[C@H]3C(=O)NCc3ccc(-c4scnc4C)cc3)C(C)(C)C)CC2)ccc1Nc1ncc(Cl)c(Nc2ccccc2P(C)(C)=O)n1 | Active |  |
| COc1cc(N2CCN(C(=O)CCCC(=O)N[C@H](C(=O)N3C[C@H](O)C[C@H]3C(=O)NCc3ccc(-c4scnc4C)cc3)C(C)(C)C)CC2)ccc1Nc1ncc(Cl)c(Nc2ccccc2P(C)(C)=O)n1 | Active |  |
| COc1cc(N2CCN(C(=O)CCOCCOCCOCCOCCC(=O)N[C@H](C(=O)N3C[C@H](O)C[C@H]3C(=O)NCc3ccc(-c4scnc4C)cc3)C(C)(C)C)CC2)ccc1Nc1ncc(Cl)c(Nc2ccccc2P(C)(C)=O)n1 | inactive |  |
| COc1cc(N2CCC(N3CCN(C(=O)CCOCCOCCC(=O)N[C@H](C(=O)N4C[C@H](O)C[C@H]4C(=O)NCc4ccc(-c5scnc5C)cc4)C(C)(C)C)CC3)CC2)ccc1Nc1ncc(Cl)c(Nc2ccccc2P(C)(C)=O)n1 | inactive |  |
| COc1cc(N2CCN(C(=O)CCCCCCCCC(=O)N[C@H](C(=O)N3C[C@H](O)C[C@H]3C(=O)NCc3ccc(-c4scnc4C)cc3)C(C)(C)C)CC2)ccc1Nc1ncc(Cl)c(Nc2ccccc2P(C)(C)=O)n1 | Active | DC50 [2]: > 50 nM |
| COc1cc(N2CCC(N3CCN(C(=O)CCOCCOCCOCCOCCOCCC(=O)N[C@H](C(=O)N4C[C@H](O)C[C@H]4C(=O)NCc4ccc(-c5scnc5C)cc4)C(C)(C)C)CC3)CC2)ccc1Nc1ncc(Cl)c(Nc2ccccc2P(C)(C)=O)n1 | inactive |  |

| Structure (SMILES) | Activity (SR) | further results |
| --- | --- | --- |
| COc1cc(N2CCN(C(=O)CCCCC(=O)N[C@H](C(=O)N3C[C@H](O)C[C@H]3C(=O)NCc3ccc(-c4scnc4C)cc3)C(C)(C)C)CC2)ccc1Nc1ncc(Cl)c(Nc2ccccc2P(C)(C)=O)n1 | Active |  |
| COc1cc(N2CCN(C(=O)CCCCCC(=O)N[C@H](C(=O)N3C[C@H](O)C[C@H]3C(=O)NCc3ccc(-c4scnc4C)cc3)C(C)(C)C)CC2)ccc1Nc1ncc(Cl)c(Nc2ccccc2P(C)(C)=O)n1 | Active |  |
| COc1cc(N2CCC(N3CCN(C(=O)CCOCCOCCOCCC(=O)N[C@H](C(=O)N4C[C@H](O)C[C@H]4C(=O)NCc4ccc(-c5scnc5C)cc4)C(C)(C)C)CC3)CC2)ccc1Nc1ncc(Cl)c(Nc2ccccc2P(C)(C)=O)n1 | inactive |  |
| COc1cc(N2CCC(NC(=O)CCC(=O)N[C@H](C(=O)N3C[C@H](O)C[C@H]3C(=O)NCc3ccc(-c4scnc4C)cc3)C(C)(C)C)CC2)ccc1Nc1ncc(Cl)c(Nc2ccccc2P(C)(C)=O)n1 | Active |  |
| COc1cc(N2CCC(N3CCN(C(=O)CCOCCOCCOCCOCCC(=O)N[C@H](C(=O)N4C[C@H](O)C[C@H]4C(=O)NCc4ccc(-c5scnc5C)cc4)C(C)(C)C)CC3)CC2)ccc1Nc1ncc(Cl)c(Nc2ccccc2P(C)(C)=O)n1 | inactive |  |
| COc1cc(N2CCC(N3CCN(C(=O)CCCCCCC(=O)N[C@H](C(=O)N4C[C@H](O)C[C@H]4C(=O)NCc4ccc(-c5scnc5C)cc4)C(C)(C)C)CC3)CC2)ccc1Nc1ncc(Cl)c(Nc2ccccc2P(C)(C)=O)n1 | Active | DC50 [2]: 11.4 nM |
| COc1cc(N2CCC(N3CCN(C(=O)CCCCC(=O)N[C@H](C(=O)N4C[C@H](O)C[C@H]4C(=O)NCc4ccc(-c5scnc5C)cc4)C(C)(C)C)CC3)CC2)ccc1Nc1ncc(Cl)c(Nc2ccccc2P(C)(C)=O)n1 | Active |  |
| COc1cc(N2CCC(N3CCN(C)CC3)CC2)ccc1Nc1ncc(Cl)c(Nc2ccccc2P(C)(C)=O)n1 [BRIGATINIB] |  | IC50 (cells): 691 nM; IC50 (SR): 2.7 nM; Activity [1]: inactive; IC50 (NCI-H69): 2600 nM; IC50 (NCI-H2228): 58.2 nM |
| COc1cc(N2CCN(C(=O)CCC(=O)N[C@H](C(=O)N3C[C@H](O)C[C@H]3C(=O)NCc3ccc(-c4scnc4C)cc3)C(C)(C)C)CC2)ccc1Nc1ncc(Cl)c(Nc2ccccc2P(C)(C)=O)n1 | Active |  |
| COc1cc(N2CCC(N3CCN(C(=O)CCCCCCCC(=O)N[C@H](C(=O)N4C[C@H](O)C[C@H]4C(=O)NCc4ccc(-c5scnc5C)cc4)C(C)(C)C)CC3)CC2)ccc1Nc1ncc(Cl)c(Nc2ccccc2P(C)(C)=O)n1 | Active | DC50 [2]: 25.1 nM |
| COc1cc(N2CCC(N3CCN(C(=O)CCCCCCCCC(=O)N[C@H](C(=O)N4C[C@H](O)C[C@H]4C(=O)NCc4ccc(-c5scnc5C)cc4)C(C)(C)C)CC3)CC2)ccc1Nc1ncc(Cl)c(Nc2ccccc2P(C)(C)=O)n1 | Active | DC50 [2]: 7.5 nM |
| COc1cc(N2CCN(C(=O)CCOCCOCCC(=O)N[C@H](C(=O)N3C[C@H](O)C[C@H]3C(=O)NCc3ccc(-c4scnc4C)cc3)C(C)(C)C)CC2)ccc1Nc1ncc(Cl)c(Nc2ccccc2P(C)(C)=O)n1 | inactive |  |
| COc1cc(N2CCC(N3CCN(C(=O)CCCCCC(=O)N[C@H](C(=O)N4C[C@H](O)C[C@H]4C(=O)NCc4ccc(-c5scnc5C)cc4)C(C)(C)C)CC3)CC2)ccc1Nc1ncc(Cl)c(Nc2ccccc2P(C)(C)=O)n1 | Active |  |
| COc1cc(N2CCC(N3CCN(C(=O)CCC(=O)N[C@H](C(=O)N4C[C@H](O)C[C@H]4C(=O)NCc4ccc(-c5scnc5C)cc4)C(C)(C)C)CC3)CC2)ccc1Nc1ncc(Cl)c(Nc2ccccc2P(C)(C)=O)n1 | Active |  |
| COc1cc(N2CCN(C(=O)CCOCCOCCOCCOCCOCCC(=O)N[C@H](C(=O)N3C[C@H](O)C[C@H]3C(=O)NCc3ccc(-c4scnc4C)cc3)C(C)(C)C)CC2)ccc1Nc1ncc(Cl)c(Nc2ccccc2P(C)(C)=O)n1 | inactive |  |
| COc1cc(N2CCC(N3CCN(C(=O)CCCC(=O)N[C@H](C(=O)N4C[C@H](O)C[C@H]4C(=O)NCc4ccc(-c5scnc5C)cc4)C(C)(C)C)CC3)CC2)ccc1Nc1ncc(Cl)c(Nc2ccccc2P(C)(C)=O)n1 | Active |  |
| COc1cc(N2CCC(NC(=O)CCOCCOCCOCCOCCC(=O)N[C@H](C(=O)N3C[C@H](O)C[C@H]3C(=O)NCc3ccc(-c4scnc4C)cc3)C(C)(C)C)CC2)ccc1Nc1ncc(Cl)c(Nc2ccccc2P(C)(C)=O)n1 | inactive |  |
| COc1cc(N2CCC(NC(=O)CCCCC(=O)N[C@H](C(=O)N3C[C@H](O)C[C@H]3C(=O)NCc3ccc(-c4scnc4C)cc3)C(C)(C)C)CC2)ccc1Nc1ncc(Cl)c(Nc2ccccc2P(C)(C)=O)n1 | Active |  |
| COc1cc(N2CCN(C(=O)CCCCCCC(=O)N[C@H](C(=O)N3C[C@H](O)C[C@H]3C(=O)NCc3ccc(-c4scnc4C)cc3)C(C)(C)C)CC2)ccc1Nc1ncc(Cl)c(Nc2ccccc2P(C)(C)=O)n1 | Active | DC50 [2]: > 50 nM |
